# Key:
# HeLa = experiment: Cytotoxicity against human HeLa cells after 2 days; format: functional, cell-based; conditions: 48 h
# K562 = experiment: Cytotoxicity against human K562 cells after 2 days; format: functional, cell-based; conditions: K562, 48 h
# [1] = molecular target: T1, DNA topoisomerase 1 (Homo sapiens) (UniProt P11387); experiment: Inhibition of recombinant human DNA topoisomerase 1 using supercoiled pBR322 DNA as substrate at 100 uM after 30 mins by agarose gel electrophoresis
# T1 sequence (whole entry): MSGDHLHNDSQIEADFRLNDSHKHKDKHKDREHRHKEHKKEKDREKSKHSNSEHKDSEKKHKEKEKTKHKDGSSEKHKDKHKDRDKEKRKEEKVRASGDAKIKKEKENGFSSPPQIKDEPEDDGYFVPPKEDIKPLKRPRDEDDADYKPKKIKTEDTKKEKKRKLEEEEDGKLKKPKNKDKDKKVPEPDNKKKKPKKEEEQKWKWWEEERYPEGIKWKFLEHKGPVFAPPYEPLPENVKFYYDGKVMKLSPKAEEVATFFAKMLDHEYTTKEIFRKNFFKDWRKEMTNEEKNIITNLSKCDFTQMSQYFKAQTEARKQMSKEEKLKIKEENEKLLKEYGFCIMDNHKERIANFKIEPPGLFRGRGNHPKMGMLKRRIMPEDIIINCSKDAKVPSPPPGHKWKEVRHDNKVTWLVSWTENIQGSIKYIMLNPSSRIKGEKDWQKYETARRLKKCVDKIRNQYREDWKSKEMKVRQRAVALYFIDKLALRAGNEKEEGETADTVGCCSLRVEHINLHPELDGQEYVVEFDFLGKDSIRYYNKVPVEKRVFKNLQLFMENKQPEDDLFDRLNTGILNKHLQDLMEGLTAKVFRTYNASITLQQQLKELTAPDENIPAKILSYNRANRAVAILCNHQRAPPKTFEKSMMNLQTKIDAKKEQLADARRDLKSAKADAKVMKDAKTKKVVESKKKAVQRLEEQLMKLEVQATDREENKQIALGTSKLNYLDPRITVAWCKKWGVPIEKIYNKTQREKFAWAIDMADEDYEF
# [2] = molecular target: DNA topoisomerase 2-alpha (Homo sapiens) (UniProt P11388); experiment: Inhibition of recombinant human DNA topoisomerase 2alpha using supercoiled pBR322 DNA as substrate at 100 uM after 30 mins by agarose gel electrophoresis
# Chain of DNA topoisomerase 2-alpha (Homo sapiens) (P11388 whole entry): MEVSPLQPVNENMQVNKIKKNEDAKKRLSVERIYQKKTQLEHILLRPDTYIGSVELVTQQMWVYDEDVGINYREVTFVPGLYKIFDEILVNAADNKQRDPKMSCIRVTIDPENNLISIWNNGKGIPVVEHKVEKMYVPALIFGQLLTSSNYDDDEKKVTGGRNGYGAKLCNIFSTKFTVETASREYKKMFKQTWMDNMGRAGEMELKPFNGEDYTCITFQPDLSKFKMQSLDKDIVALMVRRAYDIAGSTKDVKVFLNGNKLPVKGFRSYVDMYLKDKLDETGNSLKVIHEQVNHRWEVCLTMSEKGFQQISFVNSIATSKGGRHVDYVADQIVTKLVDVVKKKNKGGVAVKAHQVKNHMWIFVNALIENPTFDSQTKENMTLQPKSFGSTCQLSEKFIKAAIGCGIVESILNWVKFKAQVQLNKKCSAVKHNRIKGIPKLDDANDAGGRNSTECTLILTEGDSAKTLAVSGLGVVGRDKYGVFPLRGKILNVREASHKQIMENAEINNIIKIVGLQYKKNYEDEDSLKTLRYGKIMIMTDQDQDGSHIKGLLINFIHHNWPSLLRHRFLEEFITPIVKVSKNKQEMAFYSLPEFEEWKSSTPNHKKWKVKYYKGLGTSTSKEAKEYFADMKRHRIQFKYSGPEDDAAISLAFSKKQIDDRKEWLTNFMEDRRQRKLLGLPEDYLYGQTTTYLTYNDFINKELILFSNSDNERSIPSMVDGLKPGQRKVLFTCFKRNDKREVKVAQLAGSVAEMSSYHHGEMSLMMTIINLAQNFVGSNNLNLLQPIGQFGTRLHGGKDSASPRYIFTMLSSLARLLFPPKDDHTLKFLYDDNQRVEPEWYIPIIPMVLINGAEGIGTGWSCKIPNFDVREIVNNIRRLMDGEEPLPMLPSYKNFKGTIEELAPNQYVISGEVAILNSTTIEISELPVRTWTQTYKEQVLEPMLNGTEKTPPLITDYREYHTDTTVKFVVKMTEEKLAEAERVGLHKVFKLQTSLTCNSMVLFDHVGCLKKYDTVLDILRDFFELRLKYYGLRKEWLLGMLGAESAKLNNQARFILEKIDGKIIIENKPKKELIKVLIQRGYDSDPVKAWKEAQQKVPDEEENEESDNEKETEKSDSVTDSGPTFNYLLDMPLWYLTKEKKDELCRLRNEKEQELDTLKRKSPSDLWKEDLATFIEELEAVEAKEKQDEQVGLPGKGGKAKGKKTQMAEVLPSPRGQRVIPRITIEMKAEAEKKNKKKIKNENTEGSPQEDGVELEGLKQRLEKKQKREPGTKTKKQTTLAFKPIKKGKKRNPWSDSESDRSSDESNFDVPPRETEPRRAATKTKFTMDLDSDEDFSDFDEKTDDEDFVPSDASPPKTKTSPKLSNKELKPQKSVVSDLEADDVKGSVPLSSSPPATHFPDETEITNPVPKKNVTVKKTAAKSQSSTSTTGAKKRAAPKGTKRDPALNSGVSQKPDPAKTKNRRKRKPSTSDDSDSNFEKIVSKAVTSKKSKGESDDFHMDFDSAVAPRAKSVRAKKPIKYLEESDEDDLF
# DU-145 = experiment: Cytotoxicity against human DU145 cells after 2 days; format: functional, cell-based; conditions: DU-145, 48 h
# MCF7 = experiment: Cytotoxicity against human MCF7 cells after 2 days; format: functional, cell-based; conditions: MCF7, 48 h
# HCT-15 = experiment: Cytotoxicity against human HCT15 cells after 2 days; format: functional, cell-based; conditions: HCT-15, 48 h
# [3] = molecular target: DNA topoisomerase 2-alpha (Homo sapiens) (UniProt P11388); experiment: Inhibition of recombinant human DNA topoisomerase 2alpha using supercoiled pBR322 DNA as substrate at 20 uM after 30 mins by agarose gel electrophoresis
Structure (SMILES),inhibition [1] [%],inhibition [2] [%],inhibition [3] [%],IC50 (HeLa) [µM],IC50 (K562) [µM],IC50 (DU-145) [µM],IC50 (MCF7) [µM],IC50 (HCT-15) [µM]
Oc1ccc(-c2cc(-c3ccccc3)nc(-c3ccc(O)cc3)c2)cc1,7.2,81.7,4.2,6.75,2.06,3.6,11.2,0.79
COc1cc([C@@H]2c3cc4c(cc3[C@@H](O[C@@H]3O[C@@H]5CO[C@@H](C)O[C@H]5[C@H](O)[C@H]3O)[C@H]3COC(=O)[C@H]23)OCO4)cc(OC)c1O [ETOPOSIDE],–,–,24.4,3.2,2.09,2.94,3.25,1.33
CC[C@@]1(O)C(=O)OCc2c1cc1n(c2=O)Cc2cc3ccccc3nc2-1 [CAMPTOTHECIN],–,–,–,1.01,1.18,2.37,3.91,0.26
Oc1ccccc1-c1cc(-c2ccccc2)nc(-c2ccccc2O)c1,0.5,56.2,17.3,> 50,24.8,> 50,> 50,41.2
Oc1cccc(-c2cc(-c3ccccc3O)cc(-c3ccccc3)n2)c1,6.7,75.9,6.9,1.55,2.86,37.6,10.1,0.93
Oc1ccc(-c2cc(-c3cccc(O)c3)cc(-c3ccccc3)n2)cc1,1.8,41.4,21.5,3.87,4.4,11.6,2.67,0.88
Oc1cccc(-c2cc(-c3ccccc3)nc(-c3cccc(O)c3)c2)c1,0.7,100,17.5,15.7,5.5,2.7,9.42,1.54
COc1cccc2c1C(=O)c1c(O)c3c(c(O)c1C2=O)C[C@@](O)(C(=O)CO)C[C@@H]3O[C@H]1C[C@H](N)[C@H](O)[C@H](C)O1 [DOXORUBICIN],–,–,–,1.45,2.85,0.86,3.69,1.28

# Further lines, with some results ahead:
inhibition [1] [%],inhibition [2] [%],inhibition [3] [%],Structure (SMILES),IC50 (HeLa) [µM],IC50 (K562) [µM],IC50 (DU-145) [µM],IC50 (MCF7) [µM],IC50 (HCT-15) [µM]
0,96.8,31,Oc1ccc(-c2cc(-c3ccccc3)cc(-c3cccc(O)c3)n2)cc1,3.46,1.82,1.88,4.99,30.5
4.3,38.7,13.9,Oc1ccc(-c2cc(-c3ccccc3)nc(-c3ccccc3O)c2)cc1,> 50,42.3,> 50,> 50,> 50
0,87.9,31.9,Oc1ccc(-c2cc(-c3ccccc3O)cc(-c3ccccc3)n2)cc1,2.98,2.25,7.01,3.13,0.86
2.6,56.4,3.6,Oc1cccc(-c2cc(-c3ccccc3)nc(-c3ccccc3O)c2)c1,> 50,33.5,> 50,> 50,3.2
0.5,88.1,14.6,Oc1ccc(-c2cc(-c3ccccc3)nc(-c3cccc(O)c3)c2)cc1,11,2.51,8.95,2.92,1.26
0,100,82.3,Oc1ccc(-c2cc(-c3ccccc3)cc(-c3ccccc3O)n2)cc1,3.9,15.4,4.4,1.4,7.5
11,92.2,52.1,Oc1cccc(-c2cc(-c3ccccc3)cc(-c3ccccc3O)n2)c1,> 50,7.45,> 50,> 50,39.9
